These results are taken from publication PMC7073023, “Overexpression of ABCB1 Transporter Confers Resistance to mTOR Inhibitor WYE-354 in Cancer Cells” (International Journal of Molecular Sciences, 2020).

The target of data set [1] is T1, ABCB1 (Homo sapiens, UniProt P08183).
The target in data set [2] is T1, ABCB1. As to the kind of experiment: cell-based. Also on record: full length ABCB1 (transfected HEK293); ABCB1 membrane vesicles (ATPase kit). The note with it: read-out: % of the basal activity.

Molecules are shown by their SMILES.

T1 sequence (P08183 whole entry): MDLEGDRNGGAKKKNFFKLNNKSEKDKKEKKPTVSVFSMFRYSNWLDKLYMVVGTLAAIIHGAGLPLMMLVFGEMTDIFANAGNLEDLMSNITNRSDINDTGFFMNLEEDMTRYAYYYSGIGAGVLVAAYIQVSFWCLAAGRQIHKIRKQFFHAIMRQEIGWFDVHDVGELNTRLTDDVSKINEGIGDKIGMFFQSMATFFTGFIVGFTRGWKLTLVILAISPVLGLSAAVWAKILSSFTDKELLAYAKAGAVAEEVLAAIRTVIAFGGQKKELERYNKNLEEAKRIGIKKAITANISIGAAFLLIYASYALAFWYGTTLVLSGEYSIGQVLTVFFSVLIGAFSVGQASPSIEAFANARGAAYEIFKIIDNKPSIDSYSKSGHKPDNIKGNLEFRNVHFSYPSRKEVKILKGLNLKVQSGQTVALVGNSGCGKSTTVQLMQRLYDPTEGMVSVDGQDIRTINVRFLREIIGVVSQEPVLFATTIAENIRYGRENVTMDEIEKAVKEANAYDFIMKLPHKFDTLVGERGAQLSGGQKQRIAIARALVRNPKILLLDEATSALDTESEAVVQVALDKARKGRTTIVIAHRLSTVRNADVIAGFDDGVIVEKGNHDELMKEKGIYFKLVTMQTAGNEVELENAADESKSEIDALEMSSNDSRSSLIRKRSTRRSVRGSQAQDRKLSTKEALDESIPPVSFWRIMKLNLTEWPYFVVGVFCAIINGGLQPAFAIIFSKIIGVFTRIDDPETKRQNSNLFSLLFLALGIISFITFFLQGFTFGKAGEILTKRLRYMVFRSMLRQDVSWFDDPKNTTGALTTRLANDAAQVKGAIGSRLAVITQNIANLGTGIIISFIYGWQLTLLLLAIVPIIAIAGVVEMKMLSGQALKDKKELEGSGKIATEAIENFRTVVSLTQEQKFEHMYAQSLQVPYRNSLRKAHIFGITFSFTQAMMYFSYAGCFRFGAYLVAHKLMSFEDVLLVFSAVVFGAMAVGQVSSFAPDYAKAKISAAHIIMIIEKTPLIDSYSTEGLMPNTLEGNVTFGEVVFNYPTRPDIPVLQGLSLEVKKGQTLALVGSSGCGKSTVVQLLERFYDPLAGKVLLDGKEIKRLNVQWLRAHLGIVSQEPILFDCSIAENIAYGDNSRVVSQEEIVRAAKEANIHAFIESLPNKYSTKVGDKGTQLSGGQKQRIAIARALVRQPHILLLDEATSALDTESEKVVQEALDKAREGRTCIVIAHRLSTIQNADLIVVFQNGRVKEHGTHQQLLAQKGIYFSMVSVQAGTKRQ

On to `CC(=O)O[C@H]1C(=O)[C@@]2(C)[C@H]([C@H](OC(=O)c3ccccc3)[C@]3(O)C[C@H](OC(=O)[C@H](O)[C@@H](NC(=O)c4ccccc4)c4ccccc4)C(C)=C1C3(C)C)[C@]1(OC(C)=O)CO[C@@H]1C[C@@H]2O` [paclitaxel], for which the “[3H]-paclitaxel accumulation in ABCB1-overexpressing and ABCB1-transfected cells” value on ABCB1 [1] is “drug–drug interaction between WYE-354 and paclitaxel, which is a known substrate of ABCB1”. As to `COC(=O)Nc1ccc(-c2nc(N3CCOCC3)c3cnn(C4CCN(C(=O)OC)CC4)c3n2)cc1` [WYE-354], the Emax on ABCB1 [2] amounted to 141%.
